# Laboratory results reported in patent US8623859B2, “Bradykinin B1 antagonists” (Evotec AG, priority 2008, dated 2014).
# Target: T1, human B1 (Homo sapiens, UniProt P46663)
# T1 construct: host or cells: CHO-K1
# T1 sequence (P46663 1-353): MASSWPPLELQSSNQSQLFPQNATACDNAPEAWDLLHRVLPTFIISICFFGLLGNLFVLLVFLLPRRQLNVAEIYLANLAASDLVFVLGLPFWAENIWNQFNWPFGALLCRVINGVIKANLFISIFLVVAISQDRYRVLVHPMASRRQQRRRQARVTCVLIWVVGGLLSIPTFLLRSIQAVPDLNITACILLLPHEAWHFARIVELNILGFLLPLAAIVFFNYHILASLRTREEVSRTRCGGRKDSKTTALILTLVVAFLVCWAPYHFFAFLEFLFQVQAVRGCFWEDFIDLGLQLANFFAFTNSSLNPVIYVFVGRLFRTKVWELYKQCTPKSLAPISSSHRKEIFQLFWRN
# Assay: Calcium flux assay for Bradykinin B1 antagonist, CHO-K1 cell line expressing human B1
# Assay type: cell-based
# Details: CHO-K1 cells expressing human B1, agonist Lys-(Des-Arg)-Bradykinin, read-out: Potency (IC50 value against human B1)
# Protocol: Calcium Flux Assay for Bradykinin B1 Antagonist
# The potency to inhibit the Bradykinin B1 receptors was determined for the compounds of this invention in a cell-based fluorescent calcium-mobilization assay. The assay measures the ability of test compounds to inhibit Bradykinin B1 receptor agonist-induced increase of intracellular free Ca^2+ in cell lines expressing B1.
# The change of the intracellular Ca^2+ concentration is monitored with a specifically designed fluorescent plate reader (FlexStation, Molecular Devices).
# CHO-K1 cell line expressing human B1 was purchased from Euroscreen (Gosselies, Belgium, with reference name hBl-D1). CHO-K1 cell lines expressing rat B1 or mouse B1 were established in the following way: the full-length receptor-coding cDNA clones were obtained by PCR performed on rat or mouse brain cDNAs. The respective cDNAs were cloned into an expression vector under the control of a CMV promotor. The resultant plasmids were introduced into CHO-K1 cells with liposome technology (FuGENE; Roche Diagnostics, Basel), according to the standard protocols described by the manufacturer. Cell lines expressing a Bradykinin receptor were selected in the culture medium containing 400 μg/ml G418 (Sigma). From selected cell populations, monoclonal cell lines were isolated by single cell cloning. The expression of Bradykinin receptors was confirmed by immunofluorescence staining of the cells, as well as by calcium flux assay.
# Human B1-expressing cells were grown in Nutrient Mixture Ham's F12 (Sigma) containing 10% Foetal bovine serum (Sigma) and 400 μg/ml G418 (Sigma), 5 μg/ml puromycim (Sigma); Rat B1 and mouse B1-expressing cells were grown in DMEM/F12 medium (Sigma) containing 10% Foetal bovine serum (Sigma) and 400 μg/ml G418 (Sigma).
# For the calcium flux assay, 80% confluent cells were detached from the culture vessels with Versene (Gibco; for human B1 cell-line) or with 1× trypsin-EDTA solution (Sigma; for rodent B1 cell-line), and seeded into 384-well plates (Cell binding Surface; Corning, N.Y.; #3683) at a density of 15,000 cells per well for human B1 or at a density of 20,000 cells per well for rodent B1. Cells were seeded in a volume of 50 μl in medium without antibiotics and incubated overnight in a humidified atmosphere with 5% CO2 at 37° C. The following day, the medium was replaced with 20 μl of 5 μM Fluo-4AM dye (Molecular Probes) in assay buffer (2.5 mM probenicid, 1 mg/ml pluronic acid, 0.1% BSA, 135 mM NaCl, 5 mM KCl, 1.8 mM CaCl, 1 mM MgCl2, 10 mM HEPES, 5.6 mM glucose, 0.05% gelatine, pH 7.4). The calcium indicator loaded cells were incubated at 37° C. for 2 hrs. Extracellular dye was then removed and each well was filled with 45 μl of assay buffer. Cell plates were kept in dark until used. Test compounds were assayed at 8 concentrations in triplicate. Serial 10-fold dilutions in 100% DMSO were made at a 100-times higher concentration than the final concentration, and then diluted 1:10 in assay buffer. 5 μl of each diluted compound was added to the well of cell plates (yielding final concentration with 1% DMSO), and incubated for 30 min at 25° C. before the addition of B1 agonist on the FlexStation.
# The addition of agonist 20 μl per well to the assay plate was carried out on the FlexStation while continuously monitoring Ca^2+-dependent fluorescence at 538 nm. The integrated values, normalized with the background fluorescence, were plotted against the logarithm of the antagonist concentrations.
row,Structure (SMILES),IC50 [µM]
1,"COc1cc(C)c(S(=O)(=O)N(C)Cc2cc(C(=O)N3CCN(C4CCN(C)CC4)CC3)co2)c(C)c1 [Ex 1, 4-Methoxy-N,2,6-trimethyl-N-[(4-{[4-(1-methylpiperidin-4-yl)piperazin-1-yl]carbonyl}furan-2-yl)methyl]benzenesulfonamide]",0.1 to 1
2,"COc1cc(C)c(S(=O)(=O)N(C)Cc2cc(C(=O)N(C)Cc3ccc(-n4ccnc4)cc3)co2)c(C)c1 [Ex 2, N-[4-(1H-imidazol-1-yl)benzyl]-5-({[(4-methoxy-2,6-dimethylphenyl)sulfonyl](methyl)amino}methyl)-N-methylfuran-3-carboxamide]",0.1 to 1
3,"COc1cc(C)c(S(=O)(=O)N(C)Cc2cc(C(=O)NC3CC(C)(C)N(C)C(C)(C)C3)co2)c(C)c1 [Ex 3, 5-({[(4-methoxy-2,6-dimethylphenyl)sulfonyl](methyl)amino}methyl)-N-(1,2,2,6,6-pentamethylpiperidin-4-yl)furan-3-carboxamide]",0.1 to 1
4,"COc1cc(C)c(S(=O)(=O)N(C)Cc2cc(C(=O)NCCc3ccc(C4=NCCN4)cc3)co2)c(C)c1 [Ex 4, N-{2-[4-(4,5-dihydro-1H-imidazol-2-yl)phenyl]ethyl}-5-({[(4-methoxy-2,6-dimethylphenyl)sulfonyl](methyl)amino}methyl)furan-3-carboxamide]",< 0.01
5,"COc1cc(C)c(S(=O)(=O)N(C)Cc2cc(C(=O)N(C)CCc3ccc(C4=NCCN4)cc3)co2)c(C)c1 [Ex 5, N-{2-[4-(4,5-dihydro-1H-imidazol-2-yl)phenyl]ethyl}-5-({[(4-methoxy-2,6-dimethylphenyl)sulfonyl](methyl)amino}methyl)-N-methylfuran-3-carboxamide]",< 0.01
6,"COc1cc(C)c(S(=O)(=O)N(C)Cc2cc(C(=O)NCc3ccc(C4=NCCN4)cc3)co2)c(C)c1 [Ex 6, N-[4-(4,5-dihydro-1H-imidazol-2-yl)benzyl]-5-({[(4-methoxy-2,6-dimethylphenyl)sulfonyl](methyl)amino}methyl)furan-3-carboxamide]",0.01 to 0.1
7,"COc1cc(C)c(S(=O)(=O)N(C)Cc2cc(C(=O)NCCc3ccc(C4=NC(C)CN4)cc3)co2)c(C)c1 (stereo not shown) [Ex 7, 5-({[(4-methoxy-2,6-dimethylphenyl)sulfonyl](methyl)amino}methyl)-N-{2-[4-(4-methyl-4,5-dihydro-1H-imidazol-2-yl)phenyl]ethyl}furan-3-carboxamide]",< 0.01
8,"COc1cc(C)c(S(=O)(=O)N(C)Cc2cc(C(=O)N(C)Cc3cccc(CN4CCCC4)c3)co2)c(C)c1 [Ex 8, 5-({[(4-methoxy-2,6-dimethylphenyl)sulfonyl](methyl)amino}methyl)-N-methyl-N-[3-(pyrrolidin-1-ylmethyl)benzyl]furan-3-carboxamide]",0.01 to 0.1
9,"COc1cc(C)c(S(=O)(=O)N(C)Cc2cc(C(=O)N(C)Cc3ccc(CN4CCCC4)cc3)co2)c(C)c1 [Ex 9, 5-({[(4-methoxy-2,6-dimethylphenyl)sulfonyl](methyl)amino}methyl)-N-methyl-N-[4-(pyrrolidin-1-ylmethyl)benzyl]furan-3-carboxamide]",0.01 to 0.1
10,"COc1cc(C)c(S(=O)(=O)N(C)Cc2cc(C(=O)N(C)Cc3ccc(C4=NCCCN4)cc3)co2)c(C)c1 [Ex 10, 5-({[(4-methoxy-2,6-dimethylphenyl)sulfonyl](methyl)amino}methyl)-N-methyl-N-[4-(1,4,5,6-tetrahydropyrimidin-2-yl)benzyl]furan-3-carboxamide]",0.01 to 0.1
11,"COc1cc(C)c(S(=O)(=O)N(C)Cc2cc(C(=O)NCc3cccc(CN4CCCC4)c3)co2)c(C)c1 [Ex 11, 5-({[(4-methoxy-2,6-dimethylphenyl)sulfonyl](methyl)amino}methyl)-N-[3-(pyrrolidin-1-ylmethyl)benzyl]furan-3-carboxamide]",0.1 to 1

# The next lines start with the values.
row,IC50 [µM],Structure (SMILES)
1,0.1 to 1,"COc1cc(C)c(S(=O)(=O)N(C)Cc2cc(C(=O)NCc3ccc(Nc4cccc[n+]4C)cc3)co2)c(C)c1 [Ex 12, 2-({4-[({[5-({[(4-methoxy-2,6-dimethylphenyl)sulfonyl](methyl)amino}methyl)furan-3-yl]carbonyl}amino)methyl]phenyl}amino)-1-methylpyridinium iodide]"
2,< 0.01,"COc1cc(C)c(S(=O)(=O)N(C)Cc2cc(C(=O)NCCc3ccc(Nc4cccc[n+]4C)cc3)co2)c(C)c1 [Ex 13, 2-({4-[2-({[5-({[(4-methoxy-2,6-dimethylphenyl)sulfonyl](methyl)amino}methyl)furan-3-yl]carbonyl}amino)ethyl]phenyl}amino)-1-methylpyridinium iodide]"
3,0.1 to 1,"COc1cc(C)c(S(=O)(=O)N(C)Cc2cc(C(=O)NCc3ccc(Nc4nccc(N)n4)cc3)co2)c(C)c1 [Ex 14, N-{4-[(4-aminopyrimidin-2-yl)amino]benzyl}-5-({[(4-methoxy-2,6-dimethylphenyl)sulfonyl](methyl)amino}methyl)furan-3-carboxamide]"
4,0.01 to 0.1,"CCc1cc(Br)ccc1S(=O)(=O)N(C)Cc1cc(C(=O)N2CCCN(CCCN3CCCC3)CC2)co1 [Ex 15, 4-bromo-2-ethyl-N-methyl-N-[(4-{[4-(3-pyrrolidin-1-ylpropyl)-1,4-diazepan-1-yl]carbonyl}furan-2-yl)methyl]benzenesulfonamide]"
5,0.1 to 1,"CCc1cc(Br)ccc1S(=O)(=O)N(C)Cc1cc(C(=O)NCc2cccc(CN3CCCC3)c2)co1 [Ex 16, 5-({[(4-bromo-2-ethylphenyl)sulfonyl](methyl)amino}methyl)-N-[3-(pyrrolidin-1-ylmethyl)benzyl]furan-3-carboxamide]"
6,0.1 to 1,"CN1CCC(CN2CCN(C(=O)c3coc(CN(C)S(=O)(=O)c4c(Cl)cccc4Cl)c3)CC2)CC1 [Ex 17, 2,6-dichloro-N-methyl-N-{[4-({4-[(1-methylpiperidin-4-yl)methyl]piperazin-1-yl}carbonyl)furan-2-yl]methyl}benzenesulfonamide]"
7,0.1 to 1,"CN(Cc1cc(C(=O)N2CCN(CCc3ccncc3)CC2)co1)S(=O)(=O)c1c(Cl)cccc1Cl [Ex 18, 2,6-dichloro-N-methyl-N-[(4-{[4-(2-pyridin-4-ylethyl)piperazin-1-yl]carbonyl}furan-2-yl)methyl]benzenesulfonamide]"
8,< 0.01,"CN(Cc1ccc(C2=NCCN2)cc1)C(=O)c1coc(CN(C)S(=O)(=O)c2c(Cl)cc(Br)cc2Cl)c1 [Ex 19, 5-({[(4-bromo-2,6-dichlorophenyl)sulfonyl](methyl)amino}methyl)-N-[4-(4,5-dihydro-1H-imidazol-2-yl)benzyl]-N-methylfuran-3-carboxamide]"
9,< 0.01,"Cc1cc(S(=O)(=O)N(C)Cc2cc(C(=O)N(C)Cc3ccc(C4=NCCN4)cc3)co2)c(C)cc1Cl [Ex 20, 5-({[(4-chloro-2,5-dimethylphenyl)sulfonyl](methyl)amino}methyl)-N-[4-(4,5-dihydro-1H-imidazol-2-yl)benzyl]-N-methylfuran-3-carboxamide]"
10,< 0.01,"CN(Cc1ccc(C2=NCCN2)cc1)C(=O)c1coc(CN(C)S(=O)(=O)c2ccc(Cl)cc2Cl)c1 [Ex 21, 5-({[(2,4-dichlorophenyl)sulfonyl](methyl)amino}methyl)-N-[4-(4,5-dihydro-1H-imidazol-2-yl)benzyl]-N-methylfuran-3-carboxamide]"
11,0.1 to 1,"CN(CCc1ccc(C2=NCCN2)cc1)C(=O)c1coc(CN(C)S(=O)(=O)c2ccc(Cl)cc2Cl)c1 [Ex 22, 5-({[(2,4-dichlorophenyl)sulfonyl](methyl)amino}methyl)-N-{2-[4-(4,5-dihydro-1H-imidazol-2-yl)phenyl]ethyl}-N-methylfuran-3-carboxamide]"
